Experimental data reported in paper PMC11551755, “Structure-based discovery of first inhibitors targeting the helicase activity of human PIF1” (Nucleic Acids Research, 2024).
Where two headings read alike, the source gives them in different places.

Molecular target: T1, hPIF1HD (Homo sapiens, UniProt Q9H611)
T1 construct: the hPIF1HD construct starts at residue Gln 206 and ends at Leu 620; hexa-histidine tag (N, cleaved yes); made in house; host or cells: ArcticExpress BL21(DE3) E. coli (Agilent Technologies)
T1 sequence (Q9H611 206-620): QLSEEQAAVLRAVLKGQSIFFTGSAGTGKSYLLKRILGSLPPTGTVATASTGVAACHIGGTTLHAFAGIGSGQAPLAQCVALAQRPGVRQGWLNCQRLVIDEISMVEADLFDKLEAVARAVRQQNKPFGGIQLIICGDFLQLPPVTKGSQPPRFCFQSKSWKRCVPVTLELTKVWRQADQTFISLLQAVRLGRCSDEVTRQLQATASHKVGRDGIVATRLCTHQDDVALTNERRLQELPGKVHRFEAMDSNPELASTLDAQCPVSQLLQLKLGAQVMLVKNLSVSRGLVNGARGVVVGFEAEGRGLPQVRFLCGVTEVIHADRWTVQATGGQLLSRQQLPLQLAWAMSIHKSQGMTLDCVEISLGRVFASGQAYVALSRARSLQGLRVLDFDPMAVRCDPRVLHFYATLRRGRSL
Assay: ssDNA d(T)55 binding assay (EMSA), wild-type hPIF1HD
Settings: 5 mM AMP-PNP, read-out: IC50 for inhibition of hPIF1HD ssDNA binding, WT
Protocol: DNA binding of hPIF1HD was assayed using a ^32P-5′ end-labelled oligo d(T)55 substrate (0.25 nM), under the same buffer conditions described for helicase assays, but with AMP-PNP instead of ATP. Reaction products were resolved on 5% poly-acrylamide gels (29:1 acrylamide:bis-acrylamide) using 0.25× TBE running buffer ([19],[28]). Gels were processed and reaction products quantified by phosphorimaging and IC50 values determined as described above.
In the hPIF1HD/AMP-PNP/1 structure, the compound 1 binding site is largely between domains 2A and 2B and is absent in the modelled hPIF1HD-ssDNA complex (Figure 2), due to the large relative movement of domain 2B required for ssDNA binding, with or without bound nucleotide ([19],[34],[35],[47]). […] To test this, we assayed binding to a radiolabelled oligo d(T)55 substrate under helicase reaction conditions, with AMP-PNP instead of ATP, in the presence of the same SMIs selected for helicase IC50 analysis (Table 1). hPIF1HD was used rather than FLhPIF1 to eliminate the non-specific DNA binding activity of the N-terminal domain ([27],[29]), and complexes were resolved by gel electrophoresis (electrophoretic mobility shift assay, EMSA). […] With an increasing concentration of compound 1C (or other analogues of 1) or a derivative, progressive inhibition of ssDNA binding was observed, allowing determination of IC50 values for most compounds tested. It was not possible to obtain data for compounds 3, 7, 8 and 9 due to retention of substrate in the gel wells, possibly due to low solubility of the compounds (Supplementary Figure S10).
Figure 4. Inhibition of hPIF1HD ssDNA binding by compound 1 and derivatives. Binding reactions were assembled under helicase reaction conditions but with 0.25 nM radiolabelled oligo d(T)55, 2 nM hPIF1HD, 5 mM AMP-PNP and 0.0078–2 mM SMI. Products were resolved by EMSA for quantification and IC50 determination (n = 3 repeats). Bound ssDNA was calculated as the sum of the major and minor species, interpreted as one or two bound hPIF1HD molecules respectively. See also Supplementary Figure S10. IC50 values are given along with those determined for hPIF1HD variants V258A and V258L (see Supplementary Figure S12). TEXT PRINTED IN THE PICTURE: 1C: IC50 (μM): N.D. | 1E: IC50 (μM): N.D. | 2: IC50 (μM): WT: 224 ± 86; IC50 (μM): V258A: 103 ± 31; IC50 (μM): V258L: 304 ± 88 | 4: IC50 (μM): N.D. | 5: IC50 (μM): WT: 198 ± 54; IC50 (μM): V258A: 79.2 ± 27; IC50 (μM): V258L: 414 ± 45 | 6: IC50 (μM): WT: 722 ± 194; IC50 (μM): V258A: 295 ± 116; IC50 (μM): V258L: 1010 ± 282 | 10: IC50 (μM): WT: 224 ± 59; IC50 (μM): V258A: 152 ± 42; IC50 (μM): V258L: 378 ± 99 | 11: IC50 (μM): WT: 284 ± 110; IC50 (μM): V258A: 151 ± 51; IC50 (μM): V258L: 551 ± 215

[1] = 0.25 nM d(T)55, 2 nM hPIF1HD, 0.0078–2 mM SMI, n = 3

Row | Compound | IC50 [1] [µM] | IC50 (as printed in Supplementary Figure 12 legend, 2 nM hPIF1HD) [µM]
1 | CC(=O)Nc1ccc(-c2csc(N)n2)cc1-c1ccc(C)cc1 [Compound 10] | 224 ± 59 | –
2 | CC(=O)c1ccc(-c2csc(N)n2)cc1 [Compound 2] | – | 224 ± 86
3 | CC(=O)Nc1ccc(-c2csc(N)n2)cc1C1=CCNCC1 [Compound 11] | 284 ± 110 | –
4 | N#Cc1ccc(-c2csc(N)n2)cc1 [Compound 5] | 198 ± 54 | –
5 | Nc1nc(-c2ccc(C(=O)c3ccccc3)cc2)cs1 [Compound 6] | 722 ± 194 | –
